From US11999727B2 (Tango Therapeutics, Inc., priority 2020, dated 2024)

What was measured:
[1] = tested on: HAP1 MTAP-deleted cell line; experiment: SDMA in-cell western assay, HAP1 MTAP-deleted; type: cell-based; details: for IC50: Homo sapiens, HAP1, SDMA in-cell western, HAP1 MTAP-deleted, read-out: HAP1 MTAP deleted IC50; for MTAP intact/deleted ratio: IC50 ratio HAP1 MTAP-intact / HAP1 MTAP-deleted, SDMA in-cell western
Procedure, shortened: (§1)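 IC50 values come from SDMA signal quantified by in-cell western in two HAP1 lines, one with native MTAP levels and one lacking MTAP.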

[2] = tested on: HAP1 MTAP-deleted cell line; experiment: Viability assay, MTAP-deleted cell line; type: cell-based; details: Homo sapiens, HAP1, viability assay, MTAP-deleted cell line; read-out: HAP1 MTAP deleted viability
Source text: Table 1 additionally indicates IC50 values in a viability assay for the MTAP-deleted cell line (column 10), indicating the effect of treatment with compound on cell survival.

[3] = target: T1, PRMT5 (Homo sapiens, UniProt O14744); experiment: PRMT5 biochemical IC50 assay with MTA as cofactor; details: PRMT5, MTA as cofactor; read-out: MTA IC50
T1 construct: purchased Viva (custom protein)
T1 sequence (O14744 whole entry): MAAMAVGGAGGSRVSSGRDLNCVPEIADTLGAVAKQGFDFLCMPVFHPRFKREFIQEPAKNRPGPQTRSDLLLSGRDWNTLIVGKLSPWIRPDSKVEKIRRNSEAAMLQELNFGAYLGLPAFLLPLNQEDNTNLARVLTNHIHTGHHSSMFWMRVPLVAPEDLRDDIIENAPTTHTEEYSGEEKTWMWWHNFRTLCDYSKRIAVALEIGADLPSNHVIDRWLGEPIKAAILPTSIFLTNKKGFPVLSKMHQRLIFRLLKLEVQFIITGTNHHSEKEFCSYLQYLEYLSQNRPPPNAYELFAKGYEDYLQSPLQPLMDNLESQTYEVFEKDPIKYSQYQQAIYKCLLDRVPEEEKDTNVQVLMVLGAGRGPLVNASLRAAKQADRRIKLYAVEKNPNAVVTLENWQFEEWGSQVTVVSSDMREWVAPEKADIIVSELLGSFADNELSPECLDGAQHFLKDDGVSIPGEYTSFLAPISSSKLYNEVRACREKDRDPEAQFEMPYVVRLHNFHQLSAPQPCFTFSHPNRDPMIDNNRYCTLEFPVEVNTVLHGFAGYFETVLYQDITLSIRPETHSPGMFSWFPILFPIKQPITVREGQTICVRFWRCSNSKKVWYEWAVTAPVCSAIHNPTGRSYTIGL
T1 sequence (Q9BQA1 whole entry partner): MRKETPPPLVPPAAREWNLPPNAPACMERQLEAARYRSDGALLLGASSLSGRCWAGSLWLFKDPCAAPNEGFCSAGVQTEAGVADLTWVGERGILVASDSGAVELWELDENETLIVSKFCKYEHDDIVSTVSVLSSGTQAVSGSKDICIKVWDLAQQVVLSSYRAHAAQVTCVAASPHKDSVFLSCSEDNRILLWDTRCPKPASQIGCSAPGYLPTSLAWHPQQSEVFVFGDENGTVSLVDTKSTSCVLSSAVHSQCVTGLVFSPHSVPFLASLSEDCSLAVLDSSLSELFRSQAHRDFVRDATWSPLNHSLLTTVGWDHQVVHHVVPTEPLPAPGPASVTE

[4] = target: T1, PRMT5; experiment: PRMT5 biochemical IC50 assay with no cofactor; details: PRMT5, no cofactor; read-out: No Cofactor/rel IC50
Source text: Table 1 indicates IC50 values (μM) against PRMT5 for exemplary compounds in the presence of SAM as cofactor, with no cofactor, and with MTA as cofactor, respectively (columns 4-6). […] Ki values can be calculated from the IC50 values as described in the Examples section. As detailed in the Examples section, for the assay performed in the presence of SAM, IC50=Ki×1.5 (Ki=IC50/1.5).

[5] = tested on: HAP1 MTAP-intact cell line; experiment: SDMA in-cell western assay, HAP1 MTAP-intact; type: cell-based; details: Homo sapiens, HAP1, SDMA in-cell western, HAP1 MTAP-intact; read-out: MTAP HAP1 intact IC50
Procedure, shortened: as §1

[6] = target: T1, PRMT5; experiment: PRMT5 biochemical IC50 assay with SAM as cofactor; details: PRMT5, SAM as cofactor; read-out: SAM IC50

Row | Structure (SMILES) | IC50 [1] [nM] | MTAP intact/deleted ratio [1] | IC50 [2] [nM] | IC50 [3] [nM] | IC50 [4] [nM] | IC50 [5] [nM] | IC50 [6] [nM]
1 | C[C@H]1CC[C@H](c2ccc3c(c2)C[C@@H](C)O3)N(C(=O)C(=O)Nc2cncc(C(N)=O)c2)C1 (single isomer, unassigned) [Compound 377] | > 1000 | C (an IC50 ratio of less than 3 fold) | > 10000 | > 500 | > 500 | > 1000 | > 500
2 | Cc1cc(NC(=O)C(=O)N2CC[C@H](C#N)C[C@@H]2c2ccccc2)cnc1N (single isomer, unassigned) [Compound 380] | > 1000 | C (an IC50 ratio of less than 3 fold) | > 10000 | > 500 | > 500 | > 1000 | > 500
3 | C[C@@H]1CC[C@@H](c2ccc(N)cc2)N(C(=O)C(=O)Nc2cncc(C(N)=O)c2)C1 (single isomer, unassigned) [Compound 381] | < 100 | A (an IC50 ratio greater than or equal to 10 fold) | < 1000 | < 50 | < 50 | > 1000 | 50 to 500
4 | C[C@H]1CC[C@H]([C@H]2CC[C@@H](O)CC2)N(C(=O)C(=O)Nc2cncc(C(N)=O)c2)C1 (single isomer, unassigned) [Compound 382] | > 1000 | C (an IC50 ratio of less than 3 fold) | > 10000 | > 500 | > 500 | > 1000 | > 500
5 | Cc1c(NC(=O)C(=O)N2C[C@@H](C)CC[C@@H]2c2ccc(O)cc2)cnc(N)c1C (single isomer, unassigned) [Compound 383] | < 100 | A (an IC50 ratio greater than or equal to 10 fold) | < 1000 | < 50 | 50 to 500 | > 1000 | 50 to 500
6 | Cc1cc(NC(=O)C(=O)N2CCCC[C@H]2c2cccc(N(C)C)c2)cnc1N (single isomer, unassigned) [Compound 384] | < 100 | A (an IC50 ratio greater than or equal to 10 fold) | < 1000 | < 50 | < 50 | > 1000 | 50 to 500
7 | Cc1cc(NC(=O)C(=O)N2C[C@H](C)CC[C@H]2c2cccc(N(C)C)c2)cnc1N (single isomer, unassigned) [Compound 386] | < 100 | A (an IC50 ratio greater than or equal to 10 fold) | < 1000 | < 50 | < 50 | 100 to 1000 | 50 to 500
8 | Cc1cc(NC(=O)C(=O)N2CCCC[C@@H]2c2cccc(N(C)C)c2)cnc1N (single isomer, unassigned) [Compound 390] | > 1000 | B (an IC50 ratio greater than or equal to 3 fold but lower than 10 fold) | > 10000 | 50 to 500 | > 500 | > 1000 | 50 to 500
9 | Cc1c(NC(=O)C(=O)N2C[C@H](C)CC[C@H]2c2ccc(O)cc2)cnc(N)c1C (single isomer, unassigned) [Compound 391] | > 1000 | C (an IC50 ratio of less than 3 fold) | > 10000 | > 500 | > 500 | > 1000 | > 500
10 | C[C@@H]1CC[C@@H]([C@H]2CC[C@@H](O)CC2)N(C(=O)C(=O)Nc2cncc(C(N)=O)c2)C1 (single isomer, unassigned) [Compound 393] | > 1000 | B (an IC50 ratio greater than or equal to 3 fold but lower than 10 fold) | > 10000 | 50 to 500 | > 500 | > 1000 | 50 to 500
